Laboratory results from patent US6642201B1, “Use of a dipeptide for stimulating repair processes” (priority 1998, dated 2003).
Values joined by “and” are separate entries in the source; they are usually repeats but may differ in a detail not shown here. Identical values can stand only once. Marks after values point to notes of the source that are not given here. Where a SMILES comes first, the peptide text is derived from it.

Legend:
[1] = tested on: regenerating liver cells; assay: Compensatory regeneration of the liver after partial hepatectomy; type: in vivo, white outbred male rats
Experimental: The research has been conducted on 26 white outbred male rats weighing 150-200 grams. The animals were divided into thee following groups:
3 group—rats which had undergone the operation and were subsequently (2 and 24 hours after the operation) administered two subcutaneous injections of L-Lys-L-Glu dipeptide (0,1 μkg per rat).
At the same time, the animals of the first and second groups were made injections of the same volume of the […]. The extracted liver was preserved formalin.
The rats, which had been operated on, were killed by means of ether 32 and 96 hours after the operation. The rats from the control group were killed too, simultaneously. Their livers were preserved in formalin. After staining the preparations with hematoxilin-eosin, the mitotic index in the liver cells was defined, as well as the quantity of polyploid cells in the S-phase cell cycle (the quantity of dividing cells).

[2] = tested on: purulent incised crushed wounds of the femural soft tissues; assay: Healing of purulent incised crushed wounds of the soft tissues; type: in vivo, shinshilla rabbits; parameters: key to Fibroblasts / Histiocytes / Leukocyles / Macrophases / Necrosis: 1 point - absent; 2 points - single (traces); 3 points - few; 4 points - diffuse (moderately); 5 points - many-,; 6 points - very many
Description: The efficacy of L-Lys-L-Glu dipeptide was estimated on the model of purulent incised crushed wounds of the femural soft tissues in shinshilla rabbits of both sexes with body weight 2-3 kg. Therefore, the rabbits underwent shaving in the area of femural soft tissues with subsequent incision 5 cm long and 2 sm deep. Soft tissues (muscles, subcutaneous fat) were crushed with Kocher 's forcepts and infected with the pathogenic mixture Staphylococcus aureus, strain 186. Afterwards, the wound was sutured. In 72 hours the sutures were lifted; and the wound was treated with 3% solution of hydrogen peroxide.
The animals of experimental group were injected intramuscularly every day for five days with dipeptide L-Lys-L-Glu in a single dose 1 μkg per injection. Control rabbits were injected with sodium chloride solution according to the same scheme. In the process of treatment the wounds were treated with antiseptic remedies for external use.
The estimation of L-Lys-L-Glu dipeptide efficacy in the dynamics of the inflammatory process regression was based on the terms of crust rejection and wound clearance from the pyo-necrotic mass, and appearance of the granular tissue in the wound and beginning of edge epithelization. […] The activity of tissue enzymes was also estimated (5,6,7).

[3] = tested on: duodenum mucous membrane cells; assay: Regeneration of the intestinal mucous membrane after radiation injury; type: in vivo, white male rats of the Wistar line; settings: 8th day
Experimental: The work has been performed on 24 two-month-old white male rats of the Wistar line, weighing 90-100 grams. The following three groups of animals were researched;
2 group—control (irradiated animals);
3 group—irradiated animals injected with L-Lys-L-Glu dipeptide.
A general single γ—irradiation of 6 Gy, inducing “the syndrome of intestinal death”, was made by the cobalt apparatus GUB 20000, with the dose capacity of 200 rad/min.
L-Lys-L-Glu dipeptide was injected 24 hours after the irradiation—0.5 μkg in 0.5 ml of the […]—intraperitoneally during 5 days. The animals from the first and second groups received the […] by the same scheme.
The study of L-Lys-L-Glu dipeptide's action has been performed on the proximal section of the duodenum of irradiated animals. The animals were killed under nembutal narcosis (50 mg/kg on the 8th day after irradiation (beginning of the period of repair regeneration). Pieces of the duodenum were being preserved during 24 hours by Karnovsky for the electronic microscopy.
The ultra-structural research was conducted under the JEM-100S microscope (JEOL, Japan) at the ultra-thin microscopic sections prepared on the LKB-7A ultra-microtome (LKB, Sweden) and contrasted by uranilacetatc and lead cytrate.
Mast cells were selectively stained with 1% solution of toluidine blue (Fluka) in 0,5 M HCl, with pH—0.5 (8,9).
To reveal MTL-positive cells, were used rabbits' antibodies to metal-tioneins (1-2000).
Immunohistochemical identification of antigenes at the histological sections was made according to the main requirements to immune-peroxydase methods (10,11).
The quantity research was conducted with the help of the system of computer analysis of microscopic images—IMSTAR (Imstar, France)—the Morphostar-2 and Colquant-2 license applied software were employed, in accordance with the general principles of stereology in morphometry (12, 13). For each animal, the calculation of corresponding structures was made In ten visual eye sights by three sections of the studied organ. The mitotic index (1mit) and the index of proliferating ability (Ipcna) of the duodenum cells were defined in 10-15 standard sections of crypts, with the overall contents of not less than 1000 nuclei of enterocytes. The test area for finding serotonin-positive and mast cells covered not less than 3 mm^2. MML-positive cells were counted in 100 duodenum crypts.

[4] = 32 hours After partial hepatectomy, 0,1 μkg per rat s.c. at 2 and 24 hours
[5] = 32 hours group, Before (pre-operation index)
[6] = 96 hours After partial hepatectomy, 0,1 μkg per rat s.c. at 2 and 24 hours
[7] = 96 hours group, Before (pre-operation index)
[8] = rabbits, 1 μkg i.m. daily 5 days
[9] = rabbits, 1 μkg i.m. daily 5 days, day 6
[10] = rabbits, 1 μkg i.m. daily 5 days, day 14
[11] = rabbits, 1 μkg i.m. daily 5 days, day 21
[12] = rabbits, 1 μkg i.m. daily 5 days, day 29
[13] = rabbits, 1 μkg i.m. daily 5 days, day 40
[14] = irradiated rats 6 Gy, 0.5 μkg i.p. during 5 days, duodenum
[15] = irradiated rats 6 Gy, 0.5 μkg i.p. during 5 days, duodenum crypts

NCCCC[C@H](N)C(=O)N[C@@H](CCC(=O)O)C(=O)O [L-Lys-L-Glu dipeptide, L-lysil-L-glutamic acid] (H-Lys-Glu-OH)
% of cells in the phase of DNA synthesis [1, 4]: 3.882 ± 0.8391″ %
Mitotic index [1, 4]: 2.314 ± 0.4611 %
Total number of dividing cells [1, 4]: 6.196 ± 1.279 %
increasing number of mitoses, DNA-synthesizing cells and overall amount of dividing cells ([1]; 32 hours after partial hepatectomy): does become trustworthy
% of cells in the phase of DNA synthesis [1, 5]: 0.870 ± 0.100%
Total number of dividing cells [1, 5]: 1.320 ± 0.159%
Mitotic index ([1]; 32 hours group, Before (pre-operation index), % of the total number of liver cells): 0.450 ± 0.067%
% of cells in the phase of DNA synthesis [1, 6]: 4.664 ± 1.315 %
Mitotic index [1, 6]: 4.846 ± 0.334*& %
Total number of dividing cells [1, 6]: 9.510 ± 1.609 %
number of cells in the S-phase compared to the second (control) group ([1]; 96 hours after hepatectomy): did not differ reliably
number of dividing cells bigger than with rats injected with the sodium hydrochloride ([1]; 96 hours after hepatectomy): 75%
number of mitoses compared to rats injected with the sodium hydrochloride ([1]; 96 hours after hepatectomy): twice as big
% of cells in the phase of DNA synthesis [1, 7]: 0.982 ± 0.141%
Mitotic index [1, 7]: 0.294 ± 0.084%
activity of acid phosphatase in histiocytes ([2]; phase of proliferation (14-28 days)): high activity of acid phosphatase in histiocytes
Terms of complete clearance of the wound surface from necrotizing tissues [2, 8]: 14.2 + −1.3* days
Terms of the wound epithelization [2, 8]: 24.9 + −1.9* days
Terms of tile onset of necrotizing tissue rejection form the wound surface [2, 8]: 8.3 + −1.1*
Fibroblasts [2, 9]: 4*
Histiocytes [2, 9]: 4
Leukocyles [2, 9]: 5
Macrophases [2, 9]: 3
Necrosis [2, 9]: 3*
Fibroblasts [2, 10]: 5*
Histiocytes [2, 10]: 5*
Leukocyles [2, 10]: 5
Macrophases [2, 10]: 3
Necrosis [2, 10]: 2*
Fibroblasts [2, 11]: 5
Histiocytes [2, 11]: 5
Leukocyles [2, 11]: 4
Macrophases [2, 11]: 2
Necrosis [2, 11]: 2*
Fibroblasts [2, 12]: 5
Histiocytes [2, 12]: 4
Leukocyles [2, 12]: 4*
Macrophases [2, 12]: 2
Necrosis [2, 12]: 1
Fibroblasts [2, 13]: 6*
Histiocytes [2, 13]: 6*
Leukocyles [2, 13]: 2
Macrophases [2, 13]: 2*
Necrosis [2, 13]: 1
activity of alkaline phosphatase in foci of leukocytory infiltration and vascular endothelium ([2]; rabbits, wound tissue): high activity of alkaline phophotase
NMC/1 mm^2 (quantity of mast cells/1 square mm) [3, 14]: 24 ± 3 /1 mm^2
NMT/100 crypts (quantity of L-positive cells in 100 intestine crypts) [3, 14]: 102 ± 9 /100 crypts
Pser (volume density of serotonin-immunopositive cells) [3, 14]: 0.71 ± 0.09%
IPCNA (index of cell proliferative ability-PCNA) [3, 15]: 49.89% and 49.8 ± 0.7 %
Imit (mitotic index) [3, 15]: 4.7% and 4.7 ± 0.1%
MTL-positive cells in the crypts' base ([3]; irradiated rats): tendency to the increase of number and intensity of immune-staining
quantitative density of enterochromaffinn cells ([3]; irradiated rats): practically gets equal to that of healthy animals
